Source: a melting point compilation (Tetko et al.; mined from patent text by program, amines drawn as free bases though some values may be those of a salt)

Row | SMILES | melting point [°C]
1 | FC(F)(F)c1ccc(CCl)cc1 | 224 to 228
2 | COC(COc1ccc(Oc2ccccc2)cc1)OC | 76.7
3 | OCc1ncccc1OCc1ccccc1 | 78.7 to 79.2
4 | Cn1nc(-c2cnc(N)nc2-c2ccco2)ccc1=O | 234
5 | CC(C)(C)C(O)(COc1ccc(F)cc1)C(F)n1cncn1 (centres undefined) | 89 to 90
6 | NCC1CCN(c2ncc3ncnc(Nc4ccc(F)c(Cl)c4)c3n2)CC1 | 165
7 | COc1cc(OC)c(-c2csc(NC(=O)c3cc4ccccc4[nH]3)n2)c(OC)n1 | 285 to 287
8 | O=C(O)Cc1cccc(Oc2ccc(Cl)cc2)c1[N+](=O)[O-] | 167 to 170
9 | CN1CC(CCCN2CCN(c3ccccc3O)CC2)OC1=O (centres undefined) | 112 to 116
10 | CCOC(=O)c1nc(CC)[nH]c1C(=O)OCC | 83 to 84
11 | Cc1cccc(N(C=C(C#N)C#N)N=C(C#N)C#N)c1 | 157 to 159
12 | Cc1ccc(OC2CCN(C(=O)C(=O)Nc3ccc4[nH]c(=O)[nH]c4c3)CC2)cc1 | 294
13 | Oc1ccc(-c2cc3c(O)cc(O)cc3o2)cc1 | 216 to 217
14 | CCOC(=O)Cc1nc(-c2ccc(Cl)cc2)oc1Oc1cc(C)ccc1C | 122 to 124
15 | CCOC(=O)C=Cc1ccncc1 | 64 to 66
16 | Cc1ccc(SCC(CCC(=O)O)C(=O)O)cc1C (centres undefined) | 96 to 98
17 | CCN(CC)C(=O)c1ccc(C(=C2CCNCC2)c2cccc3ccccc23)cc1 | 80 to 85
18 | CC(C)N(CCCC(=O)OC1c2ccccc2C(=O)N1c1ccc2ccc(Cl)nc2n1)C(C)C (centres undefined) | 118
19 | Cc1cc2c(cc1C)SC(CCCBr)C(=O)N2 (centres undefined) | 151 to 153
20 | CCCCc1ccc(CC(=O)c2ccccc2)cc1 | 53 to 55
21 | CCN(CC)CC(O)Cn1cc(-c2ccccc2)c2ccccc2c1=O (centres undefined) | 106
22 | CC(COc1ccc(O)c(C(N)=O)c1)NCC(O)c1ccccn1 (centres undefined) | 147 to 165
23 | CCc1cn2ccccc2c1S(=O)(=O)c1ccc(OS(=O)(=O)c2ccc(C)cc2)c(C)c1 | 164
24 | CCc1nc2cc(C(F)(F)F)c(Cl)cc2n1-c1ccc(C[C@H](C)NC(=O)NS(=O)(=O)c2ccc(C)cc2)cc1 | 138 to 141

Row | SMILES | melting point [°C]
25 | Oc1cc(Cl)c(OCc2ccc(F)c(Oc3ccccc3)c2)c(Cl)c1 | 145
26 | CN(C)CCCN=C1CC(c2ccc(Cl)cc2Cl)Cc2c1c(=O)c1cc(Cl)ccc1n2O (centres undefined) | 172 to 174
27 | O=C(NC(=S)Nc1nc(-c2ccc3c(c2)CCCC3)cs1)c1cccc2ccccc12 | 216 to 217
28 | COC(=O)c1cc2ccc(OCCc3ccccc3)cc2oc1=O | 100 to 101
29 | CS(=O)(=O)c1ccc(-n2nc(C(F)(F)F)cc2-c2nc3ccc(Cl)cc3s2)cc1 | 195 to 196
30 | Cc1noc(C2CC2)c1I | 71
31 | CCOC(=O)c1ccc(N2CCc3[nH]c4c(cnc5cc(Cl)ccc54)c3C2)cc1 | 241 to 243
32 | CCOC(=O)c1ncn2c1CN(C)C(=O)c1sccc1-2 | 160 to 162
33 | COc1cccc(-c2nc3c4ccccc4ccn3n2)c1 | 159 to 160
34 | COc1ccc2c(Nc3cccc(CCO)c3)c3ccccc3nc2c1 | 186 to 188
35 | O=CC(Br)c1ccc(Cl)cc1 (centres undefined) | 178
36 | C[C@H]1[C@H](O)C(F)(F)C(=O)N1c1ccc(C#N)c(Cl)c1 | 133 to 139
37 | Cn1c(N2CCOCC2)nc(C(=O)NCc2ccc(Cl)c(Cl)c2)c(O)c1=O | 100 to 102
38 | O=[N+]([O-])c1ccc2c(c1)C(c1ccccc1F)=NCC(OP(=O)(N1CCOCC1)N1CCOCC1)=N2 | 169 to 172
39 | OCc1cc(N2CCCC2)c(Br)cn1 | 108 to 110
40 | O=C(NC1N=C(c2ccccc2F)c2ccccc2NC1=O)c1cc2ccccc2o1 (racemic) | 289 to 291
41 | Clc1ccc(-c2coc3ccccc23)cc1 | 56 to 57
42 | CC(=O)OCC=Cc1ccccc1S(N)(=O)=O | 94 to 95
43 | O=C(O)Cc1cccc(OCCCc2cc(-c3ccc(C(F)(F)F)cc3)no2)c1 | 126 to 127
44 | NC(=S)NN=C(CCCCl)c1ccc(Cl)cc1 | 125 to 126
45 | CCCCCCCCCCCCCCCCCCNC(=O)c1cc(O)cc(O)c1 | 114 to 117
46 | COc1ccc(C(=O)c2[nH]c3cc(Cl)ccc3c2CC(=O)O)cc1 | 187 to 190
47 | COc1nc(N)cc2cccnc12 | 178 to 180

Next, values leading:

Row | melting point [°C] | SMILES
48 | 181 to 183 | COc1cccc(NC(=O)N[C@H]2C[C@H](C(=O)O)Nc3cc(Cl)cc(Cl)c32)c1 (relative stereo)
49 | 158 to 159 | Nc1c(Br)cc2c(c1Br)C(C(Cl)(Cl)Cl)OC(C(Cl)(Cl)Cl)O2 (centres undefined)
50 | 163 to 164 | Cc1cc(NC(=O)c2cn(-c3ccccc3)c3ccccc3c2=O)no1
51 | 114 to 115 | CC(=O)N[C@@H]1[C@@H](CCO)CC(C(=O)O)=C[C@H]1OC(C)C
52 | 125 to 127 | Oc1cccc(OCCn2ccnc2)c1
53 | 167 to 169 | Cc1sc2ncc(C(O)CCCc3ccccc3)n2c1C (centres undefined)
54 | 66 | CCN(CC(F)(F)F)c1cccc([N+](=O)[O-])c1
55 | 144 | CCc1nc(-c2nn(Cc3ccccc3F)c3ccccc23)oc1CO
56 | 188 to 189 | Cn1ncc(/C=C/C(=O)Nc2ccc(CC(C)(C)O)cc2)c1-c1ccc(F)cc1
57 | 209 to 211 | NC(N)=Nc1nc(-c2cccc(CSc3nc4ccccc4[nH]3)n2)cs1
58 | 108 to 109 | CC(C)(C)[Si](O[C@@H]1CC(=O)C[C@H](O[Si](c2ccccc2)(c2ccccc2)C(C)(C)C)C1)(c1ccccc1)c1ccccc1
59 | 135 to 144 | Cc1ccsc1C(=O)N1CCC(Sc2ccc(CCNC[C@H](O)COc3ccc(O)cc3)cc2)CC1
60 | 233 to 234 | COc1cc2nc(N)nc(-c3ccc(O)c(Br)c3)c2cc1OC
61 | > 310 | COc1ccc(Nc2nc(O)nc(NC3CCCCCC3)n2)cc1Cl
62 | 214 to 219 | Cc1ccc2c(c1)c(=O)c1c(cnn1C)n2CC#N
63 | 83 | O=C(C=Cc1c(Cl)cccc1Cl)c1ccccc1
64 | 155 to 156 | CCc1cc(CCc2nc3ccccc3o2)c(=O)[nH]c1C
65 | 76 | CCN(CC)C(=O)c1cc2ccccc2c(-c2cccc(C(F)(F)F)c2)n1
66 | 94 to 95 | CCCc1c[nH]nc1OCc1ccc2ccccc2n1

Row | melting point [°C] | SMILES
67 | 99 to 100 | CC(C)C(c1cncnc1C(F)(F)F)N(C)C(=O)Cc1ccccn1 (centres undefined)
68 | 119 to 120 | COc1cccc(C2SCCCS2)c1OC
69 | 145 to 146 | CC(=O)N1CCC(O)(c2ccccc2C)CC1
70 | 81 to 83 | COc1cc(OC)c(C(=O)C=Cc2ccc(C)cc2)c(OP(=O)(O)O)c1
71 | 184 to 186 | COc1ccc(Cn2c3c(ccc2=O)C(C)NC(SC)=N3)cc1Cl (centres undefined)
72 | 155 | NNc1ncc(-c2ccccc2)cn1
73 | 157 to 160 | O=C(c1ccc(-n2nc(-c3ccccc3O)nc2-c2ccccc2O)cc1)N1CCOCC1
74 | 130 to 135 | CC1(C)CCCC(C)(C)N1c1nc(Cl)cc(N2CCCC2)n1
75 | 192 | c1ccc(-c2ccn3cnnc3n2)cc1
76 | 114 to 115 | CCOC(=O)/C=C/c1ccc(O)c([N+](=O)[O-])c1
77 | 120 to 125 | CC1SC(c2cccnc2)N(C2CCCCC2)C1=O (centres undefined)
78 | 140 to 141 | c1cc(-c2cn3c(n2)CCC3)ccn1
79 | 197 to 198 | O=C(O)c1cnc2n(c1=O)CCC=C2Nc1ccccc1
80 | 130 to 132 | O=C(OCC1OC(n2cc(F)c(=O)[nH]c2=O)CC1OCc1ccccc1)c1cccnc1 (centres undefined)
81 | 62.5 to 64.3 | N#Cc1ccc(CCC2CCC(=O)CC2)cc1
82 | 182 to 184 | COc1cc2c(Nc3ccc(Sc4ccccn4)cc3)c(C#N)cnc2cc1N1CCC(N2CCCC2)CC1
83 | 166 to 168 | COC(=O)CNC(=O)c1ccc(I)cc1
84 | 209 to 211 | Clc1ccc2c(c1)N(c1ncnc3cc4c(cc13)OCCO4)CC2
85 | 232 to 243 | COc1ccc(/C=C/c2cc(/C=C/c3c[nH]c4ccccc34)n[nH]2)cc1OCc1ccccn1

Row | melting point [°C] | SMILES
86 | 203 to 205 | CNC(=O)N1CCN(C(=O)CN2CCCC2=O)CC1
87 | 120 to 121 | CCOC(=O)c1cn(Cc2ccccc2)nc1OCc1ccc(OCc2nc(-c3ccco3)oc2C)c(OCOC)c1
88 | 75 to 87 | COc1cc2c(cc1Nc1ncc(Cl)c(Nc3ccccc3S(=O)(=O)N(C)C)n1)CCN(CC(=O)N1CCC1)CC2
89 | > 250 | COc1cc(-c2nc(Nc3ccc(C)cc3)c3ccccc3n2)cc(OC)c1OC
90 | 272 to 274 | O=C1OCc2c1nc1ccc3c(c1c2-c1ccc2c(c1)OCO2)OCO3
91 | 159 to 160 | Cc1nc(-c2cccc(Cl)c2)c(CCC(=O)O)o1
92 | 108 to 110 | CCOC(=O)c1cccc(-c2nc(-c3ccc(OCC)cc3)cs2)c1
93 | 85 to 86 | CCC(CC)c1nn(-c2ccc(Cl)cn2)cc1CCCOc1c(CC(=O)O)cccc1OC
94 | 119 to 120 | [N-]=[N+]=NC(C(=O)O)C1c2ccccc2C=Cc2ccccc21 (centres undefined)
95 | 214 to 215 | COc1ccnc(-c2nc(=O)c3ccccc3s2)c1
96 | 148 | CC1CCc2ncc(C#N)c(=O)n21 (centres undefined)
97 | 120 to 124 | CCOC(=O)C1CCN(c2cc(-c3ccccc3)nc3ccc(F)cc23)CC1
98 | 237 to 238 | N#Cc1ccc2c3c(cc([N+](=O)[O-])c2c1)NCC3CCl (centres undefined)
99 | 69 to 70 | CC(NO)C(=O)OC(C)(C)C (centres undefined)
100 | 107 to 109 | CC(C(=O)O)c1ccc2cc(OCC=C(Cl)Cl)ccc2c1 (centres undefined)
101 | 103 | CCCC(=O)OCC(=O)C1(OC(=O)CCC)CCC2C3CC(C)C4=CC(=O)CCC4(C)C3C(O)CC21C (centres undefined)
102 | 173 to 174 | CCC(=CC#N)c1ccc2c(c1)C1(CCCCC1)OC(=O)N2
103 | 110 to 120 | CC(=O)Nc1cc([N+](=O)[O-])ccc1OCCCN
104 | > 300 | COc1ccc(-c2[nH]nc3c2C(=O)c2c(NC(=O)CN4CCN(c5ccccn5)CC4)cccc2-3)cc1
